Assay results: ChEMBL document CHEMBL1201862, “PubChem BioAssay data set” (2004)
Calls of active or inactive are those of the source.

Tests used:
[1] = viability of BHK-21 cells – cell-based, secondary screen, cytotoxicity control for flavivirus guanylyltransferase probe project (AID 624078); type: functional
[2] = toxicity toward HepG2 liver cells – cell-based, plate reader, cherry-pick, antagonist series, cytotoxicity control, dose response (AID 743416); type: functional
[3] = biological target: Hexokinase HKDC1 (Homo sapiens, UniProt Q2TB90); assay: inhibition of HKDC1 glucose phosphorylation – biochemical, W721R variant, dose response (AID 504729); type: functional
[4] = biological target: Transitional endoplasmic reticulum ATPase (Homo sapiens, UniProt P55072, C522A); assay: C522A mutant p97 ATPase inhibitors, dose response, counter-screen for p97 inhibitor project, biochemical, luminescence (AID 1544)
[5] = disruptors of CAL PDZ reporter peptide binding – biochemical, fluorescence polarization, untagged CAL PDZ, dry powder, dose response (AID 602255); type: functional
[6] = system: Vero; assay: viability of Vero cells under compound – cytotoxicity control for flavivirus capping enzyme inhibitors (AID 588742); type: functional; conditions: Chlorocebus sabaeus
[7] = biological target: T1, Cystic fibrosis transmembrane conductance regulator/Golgi-associated PDZ and coiled-coil motif-containing protein (Homo sapiens, UniProt P13569+Q9HD26); assay: disruption of CAL PDZ–reporter peptide interaction – biochemical, fluorescence polarization, Cer-tagged CAL PDZ, dry powder, dose response (AID 602253); type: functional
[8] = biological target: Glucose-6-phosphate 1-dehydrogenase (Homo sapiens, UniProt P11413); assay: inhibition of Homo sapiens G6PD, dose series – biochemical, fluorescence, selectivity assay for P. falciparum G6PD inhibitor project, dose response (AID 504792); type: functional
[9] = biological target: T2, Tyrosyl-DNA phosphodiesterase 2 (Homo sapiens, UniProt O95551); assay: potency against TDP2 phosphodiesterase activity – biochemical, epi absorbance, IC50, dose response (AID 743297)
T2 sequence (O95551 whole entry): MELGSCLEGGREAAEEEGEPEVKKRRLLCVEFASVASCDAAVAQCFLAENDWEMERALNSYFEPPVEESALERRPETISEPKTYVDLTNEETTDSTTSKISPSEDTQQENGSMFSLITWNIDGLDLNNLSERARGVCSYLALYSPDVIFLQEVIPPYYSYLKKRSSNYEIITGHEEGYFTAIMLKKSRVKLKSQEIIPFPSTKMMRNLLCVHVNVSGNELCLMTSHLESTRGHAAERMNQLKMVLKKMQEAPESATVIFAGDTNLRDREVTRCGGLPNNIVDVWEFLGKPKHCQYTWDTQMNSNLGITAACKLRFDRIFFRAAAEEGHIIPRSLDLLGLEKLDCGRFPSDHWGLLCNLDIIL

[10] = biological target: T3, Polyadenylate-binding protein 1 (Homo sapiens, UniProt P11940); assay: MLLE domain peptide-binding blockers, IC50 – biochemical, fluorescence polarization, FITC-PAM2 peptide, dose response (AID 602259); type: functional; conditions: read-out: IC50_Mean
[11] = biological target: Transitional endoplasmic reticulum ATPase (Homo sapiens, UniProt P55072); assay: p97 ATPase inhibitors, dose response, biochemical (AID 1534)
[12] = blockade of melanocortin 4 receptor signaling – cell-based, plate reader, cherry pick, counter-screen for LGR2 antagonist project, dose response (AID 743444); type: functional;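 further: transfected HEK 293 cells stimulated with alpha-MSH peptide; potency of inhibitors of the alpha-MSH evoked signal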
[13] = biological target: Induced myeloid leukemia cell differentiation protein Mcl-1 (Homo sapiens, UniProt Q07820); type: functional
[14] = viability loss in HEK293 cells – cell-based, plate reader, cherry-picked samples, cytotoxicity control, dose response (AID 743446); type: functional
[15] = biological target: T1, Cystic fibrosis transmembrane conductance regulator/Golgi-associated PDZ and coiled-coil motif-containing protein; assay: potency against CAL PDZ-peptide interaction – biochemical, fluorescence polarization, Cerulean-tagged CAL PDZ, cherry-picks, dose response (AID 504773)
[16] = biological target: T3, Polyadenylate-binding protein 1; assay: MLLE binding blockers, Cy5 peptide tracer – biochemical, fluorescence polarization, Cy5-PAM2 peptide, secondary, miRNA deadenylation inhibitor project, dose response (AID 602260); type: functional; conditions: read-out: IC50_Mean
[17] = biological target: Genome polyprotein (dengue virus type 2, UniProt P29990); assay: flavivirus cap methylation enzyme inhibition – biochemical, confirmation dose response, primary screen (AID 588689); type: functional
[18] = A549 cell cytotoxicity, dose response, cytotoxicity control, plate reader, cherry-pick, antagonist series (AID 743412); type: functional, cell-based
[19] = system: HEK293; assay: EBV LMP1 TES2 canonical NF-kB signalling blockers – cell-based, HEK293, luciferase, cherry-pick, dose response (AID 588343); type: functional; conditions: Homo sapiens
[20] = biological target: Latent membrane protein 1 (Human herpesvirus 4 (strain B95-8), UniProt P03230); assay: LMP1 TES1 pathway selectivity over dsRED control – imaging, HEK293T, dual-color eGFP/dsRED, cherry-picks, selectivity assay for LMP1 NF-kB inhibitor project, dose response (AID 588398); type: functional, cell-based
Chain of Latent membrane protein 1 (P03230 whole entry): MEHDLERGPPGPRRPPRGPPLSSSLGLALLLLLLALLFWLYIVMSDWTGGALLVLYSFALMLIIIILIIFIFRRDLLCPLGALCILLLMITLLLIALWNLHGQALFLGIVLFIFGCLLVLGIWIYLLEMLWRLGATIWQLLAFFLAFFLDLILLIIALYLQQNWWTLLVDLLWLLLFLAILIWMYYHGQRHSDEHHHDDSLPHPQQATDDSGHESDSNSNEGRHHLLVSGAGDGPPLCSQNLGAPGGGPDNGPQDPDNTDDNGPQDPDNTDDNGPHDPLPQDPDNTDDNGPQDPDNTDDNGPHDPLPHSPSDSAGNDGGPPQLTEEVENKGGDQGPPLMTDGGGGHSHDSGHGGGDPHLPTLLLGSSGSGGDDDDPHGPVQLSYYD

T1 sequence (P13569 whole entry, other chains not shown): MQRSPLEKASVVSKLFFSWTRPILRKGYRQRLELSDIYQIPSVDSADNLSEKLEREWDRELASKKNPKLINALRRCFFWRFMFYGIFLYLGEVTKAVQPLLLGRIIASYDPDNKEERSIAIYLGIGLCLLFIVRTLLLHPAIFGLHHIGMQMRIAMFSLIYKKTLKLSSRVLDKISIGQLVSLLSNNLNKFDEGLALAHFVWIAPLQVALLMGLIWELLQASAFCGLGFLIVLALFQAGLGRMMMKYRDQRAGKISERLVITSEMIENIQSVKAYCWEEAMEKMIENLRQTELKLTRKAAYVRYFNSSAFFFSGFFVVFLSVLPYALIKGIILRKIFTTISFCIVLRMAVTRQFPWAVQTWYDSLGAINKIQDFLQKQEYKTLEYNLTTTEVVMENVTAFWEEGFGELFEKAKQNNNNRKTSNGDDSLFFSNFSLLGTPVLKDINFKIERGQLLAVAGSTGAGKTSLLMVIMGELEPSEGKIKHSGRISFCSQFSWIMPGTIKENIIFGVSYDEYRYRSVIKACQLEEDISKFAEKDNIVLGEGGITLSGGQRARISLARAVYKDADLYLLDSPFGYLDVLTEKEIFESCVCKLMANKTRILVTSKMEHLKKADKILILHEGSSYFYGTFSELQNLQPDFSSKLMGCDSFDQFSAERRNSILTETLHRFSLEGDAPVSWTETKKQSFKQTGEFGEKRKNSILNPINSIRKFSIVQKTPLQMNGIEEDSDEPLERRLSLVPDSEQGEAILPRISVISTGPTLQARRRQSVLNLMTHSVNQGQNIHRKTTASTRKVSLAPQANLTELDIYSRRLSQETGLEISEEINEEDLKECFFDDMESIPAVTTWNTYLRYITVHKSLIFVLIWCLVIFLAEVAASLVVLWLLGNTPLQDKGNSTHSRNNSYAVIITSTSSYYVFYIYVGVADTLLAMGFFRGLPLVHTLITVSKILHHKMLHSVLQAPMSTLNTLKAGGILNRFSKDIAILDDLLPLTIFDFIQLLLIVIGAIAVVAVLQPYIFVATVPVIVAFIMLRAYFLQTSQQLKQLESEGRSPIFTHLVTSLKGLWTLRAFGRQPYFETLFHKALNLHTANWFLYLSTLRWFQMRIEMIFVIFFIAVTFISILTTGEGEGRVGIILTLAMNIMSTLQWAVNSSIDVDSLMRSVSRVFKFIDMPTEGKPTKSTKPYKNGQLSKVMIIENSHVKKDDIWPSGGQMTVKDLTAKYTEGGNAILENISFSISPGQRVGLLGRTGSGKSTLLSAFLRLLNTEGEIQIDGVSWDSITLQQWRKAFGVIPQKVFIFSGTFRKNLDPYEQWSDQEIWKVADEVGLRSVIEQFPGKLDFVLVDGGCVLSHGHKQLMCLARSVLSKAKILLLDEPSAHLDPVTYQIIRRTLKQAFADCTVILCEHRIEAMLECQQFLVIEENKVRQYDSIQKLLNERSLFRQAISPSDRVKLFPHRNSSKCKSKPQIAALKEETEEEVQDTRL
T3 sequence (P11940 whole entry, the tested form may be a part): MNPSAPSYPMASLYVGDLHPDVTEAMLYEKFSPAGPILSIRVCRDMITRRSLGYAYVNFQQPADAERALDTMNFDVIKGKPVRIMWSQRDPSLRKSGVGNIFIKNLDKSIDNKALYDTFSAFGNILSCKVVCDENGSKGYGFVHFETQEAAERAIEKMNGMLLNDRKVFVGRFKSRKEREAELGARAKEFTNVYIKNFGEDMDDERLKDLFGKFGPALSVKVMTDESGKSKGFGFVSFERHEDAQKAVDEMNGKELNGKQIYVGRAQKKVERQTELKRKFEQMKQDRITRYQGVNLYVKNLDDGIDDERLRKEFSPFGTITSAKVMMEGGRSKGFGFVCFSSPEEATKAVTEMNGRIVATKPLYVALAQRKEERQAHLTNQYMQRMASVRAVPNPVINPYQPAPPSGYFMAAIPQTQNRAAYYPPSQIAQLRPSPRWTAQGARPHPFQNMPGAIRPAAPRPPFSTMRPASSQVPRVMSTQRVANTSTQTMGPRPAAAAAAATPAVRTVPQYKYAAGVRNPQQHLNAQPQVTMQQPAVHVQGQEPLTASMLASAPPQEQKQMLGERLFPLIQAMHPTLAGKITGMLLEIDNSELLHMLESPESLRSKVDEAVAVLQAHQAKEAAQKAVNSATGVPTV
Chain of Genome polyprotein (P29990 2492-3391 limits assumed): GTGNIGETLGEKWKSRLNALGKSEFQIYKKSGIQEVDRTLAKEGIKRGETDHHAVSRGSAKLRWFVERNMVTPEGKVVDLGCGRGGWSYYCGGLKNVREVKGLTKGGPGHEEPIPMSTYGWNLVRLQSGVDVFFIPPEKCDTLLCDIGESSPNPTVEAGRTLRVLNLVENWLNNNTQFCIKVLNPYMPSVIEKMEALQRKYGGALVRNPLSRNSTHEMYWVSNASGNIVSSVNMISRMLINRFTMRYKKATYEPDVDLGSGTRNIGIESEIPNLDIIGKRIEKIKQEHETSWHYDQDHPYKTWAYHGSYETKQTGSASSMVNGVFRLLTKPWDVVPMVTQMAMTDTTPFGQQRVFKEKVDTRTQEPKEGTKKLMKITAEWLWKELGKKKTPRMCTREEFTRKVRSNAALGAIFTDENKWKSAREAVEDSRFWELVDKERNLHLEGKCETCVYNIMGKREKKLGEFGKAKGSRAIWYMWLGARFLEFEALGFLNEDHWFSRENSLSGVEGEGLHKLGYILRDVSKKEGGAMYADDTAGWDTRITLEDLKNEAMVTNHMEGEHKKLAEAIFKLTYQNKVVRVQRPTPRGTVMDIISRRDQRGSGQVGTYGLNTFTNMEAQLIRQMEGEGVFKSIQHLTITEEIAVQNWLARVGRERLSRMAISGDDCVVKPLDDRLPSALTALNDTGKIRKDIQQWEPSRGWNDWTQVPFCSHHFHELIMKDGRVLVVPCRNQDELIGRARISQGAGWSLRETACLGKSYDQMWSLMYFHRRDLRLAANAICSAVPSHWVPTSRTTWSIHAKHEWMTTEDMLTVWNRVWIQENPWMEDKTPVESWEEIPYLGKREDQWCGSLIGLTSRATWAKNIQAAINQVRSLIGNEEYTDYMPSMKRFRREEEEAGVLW
Chain of Hexokinase HKDC1 (Q2TB90 whole entry): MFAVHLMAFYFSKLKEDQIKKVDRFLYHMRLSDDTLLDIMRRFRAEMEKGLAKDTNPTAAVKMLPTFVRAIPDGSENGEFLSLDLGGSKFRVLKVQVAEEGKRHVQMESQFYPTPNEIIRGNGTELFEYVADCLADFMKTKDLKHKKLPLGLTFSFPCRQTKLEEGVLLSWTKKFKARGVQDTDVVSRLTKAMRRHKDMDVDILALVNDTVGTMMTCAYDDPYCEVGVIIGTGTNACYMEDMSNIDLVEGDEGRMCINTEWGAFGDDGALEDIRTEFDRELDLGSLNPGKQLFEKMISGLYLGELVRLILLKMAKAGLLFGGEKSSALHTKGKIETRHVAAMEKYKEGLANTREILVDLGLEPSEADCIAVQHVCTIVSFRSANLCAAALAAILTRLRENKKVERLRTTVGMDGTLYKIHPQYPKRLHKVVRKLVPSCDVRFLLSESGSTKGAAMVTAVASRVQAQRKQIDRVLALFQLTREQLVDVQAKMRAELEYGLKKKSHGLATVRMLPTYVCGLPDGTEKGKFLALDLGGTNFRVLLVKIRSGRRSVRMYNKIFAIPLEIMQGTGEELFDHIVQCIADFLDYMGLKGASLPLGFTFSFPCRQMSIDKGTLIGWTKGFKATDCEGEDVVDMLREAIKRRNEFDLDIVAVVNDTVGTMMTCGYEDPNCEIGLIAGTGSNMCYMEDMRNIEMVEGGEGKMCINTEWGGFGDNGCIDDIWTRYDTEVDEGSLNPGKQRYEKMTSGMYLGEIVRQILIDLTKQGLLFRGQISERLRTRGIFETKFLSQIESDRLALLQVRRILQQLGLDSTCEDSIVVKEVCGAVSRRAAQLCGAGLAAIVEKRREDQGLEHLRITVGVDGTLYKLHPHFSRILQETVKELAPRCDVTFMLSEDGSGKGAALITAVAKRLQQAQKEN
Chain of Induced myeloid leukemia cell differentiation protein Mcl-1 (Q07820 whole entry): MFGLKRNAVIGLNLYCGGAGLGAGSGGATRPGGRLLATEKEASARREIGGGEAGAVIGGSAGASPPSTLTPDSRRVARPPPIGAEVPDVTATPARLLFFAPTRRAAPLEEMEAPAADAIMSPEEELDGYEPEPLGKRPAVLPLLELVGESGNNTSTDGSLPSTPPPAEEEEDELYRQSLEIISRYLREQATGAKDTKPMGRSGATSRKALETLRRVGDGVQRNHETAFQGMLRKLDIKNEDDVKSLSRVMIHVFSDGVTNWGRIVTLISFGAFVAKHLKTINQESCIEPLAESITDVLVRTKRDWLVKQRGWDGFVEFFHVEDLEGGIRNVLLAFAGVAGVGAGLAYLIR

Row | Structure (SMILES) | CC50 [1] | AC50 [2] | IC50 [3] | IC50 [4] | AC50 [5] | CC50 [6] | AC50 [7] | IC50 [8] | IC50 [9] | IC50 [10] | IC50 [11] | AC50 [12] | IC50 [13] | AC50 [14] | AC50 [15] | IC50 [16] | IC50 [17] | AC50 [18] | AC50 [19] | AC50 [20]
1 | O=C(O)CSc1cc(NS(=O)(=O)c2cccc([N+](=O)[O-])c2)c2ccccc2c1O | 7.45 µM (active) | 12.1 µM (active) | 5.62 µM (active) | 17.4 µM (not active) | 52 µM (active) | 26.5 µM (active) | 44.7 µM (active) | 12.2 µM (active) | 12.9 µM (inactive) | 35.5 µM (inactive) | > 50 µM (not active) | 42.7 µM (active) | 13.6 µM (active) | 21.2 µM (active) | 21.7 µM (active) | > 66 µM (inactive) | 5.4 µM (active) | 17.6 µM (active) |  | 
2 | COc1cccc(CNc2ncnc3ccc(-c4c(C)noc4C)cc23)c1 |  |  |  |  |  |  |  |  |  |  |  |  |  |  |  |  |  |  | 10.3 µM (active) | 14.1 µM (active)
